What was measured:
Format in all cases: cell-based
M. smegmatis colonies = experiment: M. smegmatis colony biofilm on B4 agar with Ca acetate
B. subtilis colonies [1] = experiment: B. subtilis colony biofilm on B4 agar with Ca acetate
P. aeruginosa [2] = experiment: P. aeruginosa biofilm formation, Crystal Violet Staining; details: for biofilm development: P. aeruginosa submerged biofilm, single inhibitor (FIG. 6); for biofilm formation / combination effect on biofilm formation: P. aeruginosa; for biofilm formation: single inhibitor (FIGS. 13-14)
Procedure: (§1) Crystal Violet—From each individual culture, 20 μl samples from exponential phase and 180 μl of TSB broth were dispensed in the wells of sterile 96-wells flat-bottomed microtiter plate (Nunc) and incubated at 37° C. for 24 hours. The control well contained only TSB broth without inoculation. Following incubation, unbound cells were removed by inversion of the microtiter plate, followed by vigorous tapping on an absorbent paper. Subsequently, adhered cells were fixed for 30 minutes at […]. Adhered cells were stained by addition of 220 μl of crystal violet (0.5%) for 5 minutes. The stain was removed by exhaustive washing with distilled water. The plates were then allowed to dry. In order to quantify adhered cells, 220 μl of decoloring solution (95% ethanol) was added to each well for 15 minutes. The absorption of the eluted stain was measured at 590 nm.

B. subtilis [3] = experiment: Pellicle biofilm model, B. subtilis in liquid B4
Procedure: (§2) B. subtilis (FIG. 4A) and M. smegmatis (FIG. 4B) cells were grown in liquid B4 supplemented with 0.25% and 0.025% calcium acetate, respectively, and treated with AHA at the indicated concentrations. DMSO served as a positive control and a medium not supplemented with Ca served as a negative control. The images of the top view of the wells were taken following robust pellicles formed in the DMSO control—at 3 days for B. subtilis and at 4 days for M. smegmatis.
B. subtilis cells were grown in liquid B4 supplemented with 0.25% calcium acetate and treated with AHA at the indicated concentrations. DMSO served as a positive control and a medium not supplemented with Ca served as a negative control. The images of the top view of the wells were taken following 6 days; and the weight of the mineral was determined following removal of all organic material by bleaching.
Analysis of the weight of the minerals—(A) Thermogravimetric analysis (TGA) of the B. subtilis colonies was performed as described previously [Levi-Kalisman et al., J Chem Soc Dalton (2000), 3977-3982] for at-least three colonies materials combined for each time point. The weight loss associated with the calcite relates to the temperature range 650-800° C. Results are presented as an average of at-least three independent experiments. […]

P. aeruginosa [4] = experiment: Survival of P. aeruginosa biofilm after exposure to ciprofloxacin or gentamicin (CFU); details: alone or in combination (FIGS. 7 and 9)
Procedure: P. aeruginosa biofilms were grown in multi-well 24 wells plates in TSB for 12 hours. Following, biofilms were treated either in PBS or PBS applied with the indicated concentrations of DTNB, AHA, CIP and/or GM for 6 hours. Following treatment, the biofilms were mildly sonicated and serially diluted to assess the number of CFU within each group.

P. aeruginosa [5] = experiment: Ex vivo lung infection system (mouse lung explants infected with P. aeruginosa); details: 37° C.; for lung colonization by P. aeruginosa / lung tissue death: mouse lung explants, ~2 days (FIGS. 10D and 11); for tissue damage (Hematoxylin/eosin histology): mouse lung tissue with P. aeruginosa, 2 days
From the text: FIG. 10A is a scanning Electron Microscopy (SEM) image of biofilms of partially bleached sputum sample from P. aeruginosa positive CF patient A4, containing bleach-resistant mineralized tissue. FIG. 10B is a SEM image of biofilms of partially bleached sputum sample from P. aeruginosa positive CF patient A62 (left), accompanied by an image taken with the backscattering mode (right), containing bleach-resistant mineralized tissue. […] P. aeruginosa strain PA14 expressing GFP (green) was used to infect a lung tissue (nucleoli of lung cells were stained with DAPI—blue). Lung tissue was harvested from one month old mice and incubated in DMEM 5% FCS at 37° C. for 2 days, in the presence of P. aeruginosa, sectioned and visualized. […] Lungs were harvested from one month old mice and tissue was incubated in DMEM 5% FCS, either with or without AHA, as indicated. To each sample, either P. aeruginosa or DMEM (control) was added. Samples were incubated at 37° C. for 2 days, sectioned, stained with Hematoxylin/eosin stain and visualized.
Lungs were harvested from one month old mice and tissue was incubated in DMEM 5% FCS, either with or without DTNB, as indicated. To each sample, either P. aeruginosa or DMEM (control) was added. Samples were incubated at 37° C. for 2 days, sectioned, stained with Hematoxylin/eosin stain and visualized.
Ex vivo lung infection system—Lungs were harvested from 2 mice (one month old) and placed in petri dishes containing DMEM 5% FCS. The tissue was divided into circular pieces 4 mm in diameter with a biopsy punch and transferred to a 24 wells plate (4-5 explants/well) with 450 μl DMEM containing 100 μg/ml carbenicillin (Sigma-Aldrich) and 0, 2.5, or 5 mg/ml AHA or DTNB. To each respective well, either 50 μl DMEM (control) or P. aeruginosa pretreated with 0, 2.5, or 5 mg/ml AHA or with 0, 1, 5 or 10 mM DTNB and diluted within DMEM to attain OD600 0.373 or 0.257, respectively, were added, with three technical repeats for each condition. The plates were incubated at 37° C. for ˜2 days (48-52 hours) and washed twice with PBS, fixed with PFA 4% for 10 minutes, and embedded in either cryosection (OCT) compound or paraffin. Paraffin samples were cut into 7 micron slices and stained with H&E; whereas cryosections were cut into 10 micron slices and placed on superfrost plus slides.

P. aeruginosa [6] = experiment: Planktonic growth of P. aeruginosa; details: inhibitor concentrations used, data not shown
Procedure: (§3) Growth Analysis—To determine growth kinetics of planktonic bacteria,the cultures were grown for 15-30 hours at 30° C. in a plate reader (BioTek, Winooski, Vt., USA) and the optical density at 600 nm (OD600) was measured every 20 minutes. Results are presented as averages for 5-6 wells from a single representative experiment out of three.

[7] = test system: P. aeruginosa pre-existing biofilm; experiment: P. aeruginosa pre-existing biofilm, Crystal Violet Staining; details: biofilms grown 12 hours in TSB, treated 6 hours in PBS (FIG. 8)
Procedure: P. aeruginosa biofilms were grown in multi-well 24 wells plates in TSB for 12 hours. Following, biofilms were treated either in PBS or PBS applied with the indicated concentrations of sodium vanadate, DTNB or AHA for 6 hours. Results are shown as intensity of crystal violet staining (OD595) compared with the initial absorbance prior to treatment.
as §1

M. smegmatis = experiment: Pellicle biofilm model, M. smegmatis in liquid B4; details: liquid B4, 0.025% calcium acetate, 4 days (FIG. 4B)
Procedure: as §2

B. subtilis colonies [8] = experiment: FITC diffusion in colony cross-sections; details: day 3 B. subtilis colonies, 0.025% Ca, 10 mg/ml AHA, 4 hours after FITC (FIG. 3E)
Procedure: (§4) B. subtilis and M. smegmatis colonies grown on 1.5% B4 agar, supplemented with Ca acetate. FIG. 3A is a schematic representation of the biomineralization reactions leading to bicarbonate production. […] Scale bars represent 2 mm. […] DMSO served as a positive control and a medium not supplemented with Ca served as a negative control. Scale bars represent 2 mm. […] Colonies were grown in a medium supplemented with 0.025% Ca and treated with 10 mg/ml AHA. DMSO served as a positive control and a medium not supplemented with Ca served as a negative control. Scale bars represent 2 mm in the upper panels; and 0.5 mm in the lower panels.
Imaging—All images were taken using a Nikon D3 camera or a Stereo Discovery V20″ microscope (Tochigi, Japan) with objectives Plan Apo S ×0.5 FWD 134 mm or Apo S ×1.0 FWD 60 mm (Zeiss, Goettingen, Germany) attached to a high-resolution microscopy Axiocam camera. Data were created and processed using Axiovision suite software (Zeiss). To visualize colony cross-sections, a warm low-melt agar was poured over the colony following incubation with FITC, and allowed to solidify at room temperature (RT). Following, slices were made with a razor blade and immediately visualized. All experiments were repeated at least 3 times, in technical triplicates, with similar results.

[9] = test system: M. smegmatis planktonic cells; experiment: Planktonic growth (OD600) of M. smegmatis in B4 medium; details: B4 medium with Ca (FIG. 3C lower)
Procedure: as §4, §3

B. subtilis [10] = experiment: Planktonic growth (OD600) of B. subtilis in B4 medium; details: B4 medium with Ca, AHA concentrations giving smooth colonies (FIG. 3C upper)
Procedure: as §4, §3

## CC(=O)NO [AHA, acetohydroxamic acid]
M. smegmatis colonies; 0.025% Ca, AHA concentrations tolerated by planktonic cells (FIG. 3D)
  colony morphology: less wrinkled colonies
M. smegmatis colonies; inhibition of urease activity
  growth, biofilm development and biomineralization: inhibited growth, biofilm development and biomineralization
B. subtilis colonies [1]; B. subtilis colonies on 1.5% B4 agar with Ca acetate (FIGS. 3A-E)
  growth, biofilm development and biomineralization of colonies: inhibits growth, biofilm development and biomineralization
B. subtilis colonies [1]; B. subtilis, medium with 0.25% Ca, AHA at indicated doses (FIG. 3B)
  colony morphology: smooth colony morphology
P. aeruginosa [2]
  biofilm development: impaired biofilm development
  biofilm formation: inhibited biofilm formation
B. subtilis [3]; B. subtilis pellicle, 0.25% calcium acetate, 6 days, mineral weight after bleaching (FIG. 5)
  non-soluble mineral production: decreased non-soluble mineral production
B. subtilis [3]; B. subtilis, liquid B4, 0.25% calcium acetate, 3 days (FIG. 4A)
  growth, biofilm development and biomineralization in pellicle biofilm model: inhibits growth, biofilm development and biomineralization
P. aeruginosa [4]
  sensitization to ciprofloxacin and gentamicin: sensitized the P. aeruginosa colonies to treatment with ciprofloxacin and gentamicin
P. aeruginosa [5]
  lung colonization by P. aeruginosa: diminished lung colonization by P. aeruginosa
  lung tissue death: prevented lung tissue death
  tissue damage (Hematoxylin/eosin histology): prevents tissue damage
P. aeruginosa [6]
  effect on planktonic growth: little or no effect on planktonic growth
[7]
  dispersal of pre-existing biofilm: able to disperse a pre-existing P. aeruginosa biofilm
M. smegmatis
  growth, biofilm development and biomineralization in pellicle biofilm model: inhibits growth, biofilm development and biomineralization
B. subtilis colonies [8]
  formation of diffusion barriers within the colony: prevented the formation of the diffusion barriers within the colony
[9]
  tolerance by planktonic cells: well-tolerated
B. subtilis [10]
  effect on planktonic growth: little or no effect on planktonic growth

## O=C(O)c1cc(SSc2ccc([N+](=O)[O-])c(C(=O)O)c2)ccc1[N+](=O)[O-] [DTNB, 5,5′-Dithiobis (2-nitrobenzoic acid, DTNB)]
P. aeruginosa [2]
  biofilm development: impaired biofilm development
  biofilm formation: inhibited biofilm formation
P. aeruginosa [4]
  sensitization to ciprofloxacin and gentamicin: sensitized the P. aeruginosa colonies to treatment with ciprofloxacin and gentamicin
P. aeruginosa [5]
  lung colonization by P. aeruginosa: diminished lung colonization by P. aeruginosa
  lung tissue death: prevented lung tissue death
  tissue damage (Hematoxylin/eosin histology): prevents tissue damage
P. aeruginosa [6]
  effect on planktonic growth: little or no effect on planktonic growth
[7]
  dispersal of pre-existing biofilm: able to disperse a pre-existing P. aeruginosa biofilm

## sodium vanadate
P. aeruginosa [2]; in combination with AHA (FIG. 13)
  combination effect on biofilm formation: synergistic
P. aeruginosa [2]; in combination with DTNB (FIG. 14)
  combination effect on biofilm formation: synergistic
P. aeruginosa [2]
  biofilm formation: inhibited biofilm formation

Source: US20210015889A1, “METHODS OF DISRUPTING A BIOFILM AND/OR PREVENTING FORMATION OF SAME” (Yeda Research and Development Co. Ltd., priority 2018, published 2021)
